The text below walks through data of patent US7605163B2, “Benzoyl-piperazine derivatives” (Hoffmann-La Roche Inc., priority 2003, dated 2009).

This assay has as its target T1, mGlyT-1b (Mus musculus, UniProt P28571).
T1 construct: host or cells: Flp-in-CHO cells
T1 sequence (P28571 1-651 isoform P28571-2): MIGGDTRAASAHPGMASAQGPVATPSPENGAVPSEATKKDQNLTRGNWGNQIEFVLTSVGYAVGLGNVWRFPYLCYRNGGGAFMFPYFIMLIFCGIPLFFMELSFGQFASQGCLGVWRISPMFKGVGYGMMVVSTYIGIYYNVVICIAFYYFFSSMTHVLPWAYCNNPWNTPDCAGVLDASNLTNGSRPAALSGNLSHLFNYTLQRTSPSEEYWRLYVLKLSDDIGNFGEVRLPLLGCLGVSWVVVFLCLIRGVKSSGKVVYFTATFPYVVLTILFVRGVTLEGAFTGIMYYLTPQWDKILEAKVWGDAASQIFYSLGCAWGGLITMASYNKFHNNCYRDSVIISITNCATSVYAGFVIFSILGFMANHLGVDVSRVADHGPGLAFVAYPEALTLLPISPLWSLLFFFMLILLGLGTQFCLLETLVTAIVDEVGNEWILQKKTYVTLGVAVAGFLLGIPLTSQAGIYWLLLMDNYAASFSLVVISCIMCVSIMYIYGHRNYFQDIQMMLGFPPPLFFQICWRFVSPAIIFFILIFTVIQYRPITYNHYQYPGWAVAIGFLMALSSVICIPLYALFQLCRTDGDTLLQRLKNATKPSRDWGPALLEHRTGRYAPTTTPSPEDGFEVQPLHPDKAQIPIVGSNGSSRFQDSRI
Put plainly: Glycine Uptake Inhibition Assay (mGlyT-1b). Conditions: [3H]-glycine uptake inhibition at GlyT-1, Flp-in-CHO cells transfected with mGlyT-1b cDNA. The format is cell-based. The protocol: DMEM complete medium: Nutrient mixture F-12 (Gibco Life-technologies), fetal bovine serum (FBS) 5%, (Gibco life technologies), Penicillin/Streptomycin 1% (Gibco life technologies), Hygromycin 0.6 mg/ml (Gibco life technologies), Glutamine 1 mM Gibco life technologies)
Uptake buffer (UB): 150 mM NaCl, 10 mM Hepes-Tris, pH 7.4, 1 mM CaCl2, 2.5 mM KCl, 2.5 mM MgSO4, 10 mM (+) D-glucose. Flp-in™-CHO (Invitrogen Cat n^o R758-07) cells stably transfected with mGlyT1b cDNA.
Glycine Uptake Inhibition Assay (mGlyT-1b)
On day 1 mammalian cells, (Flp-in™-CHO), transfected with mGlyT-1b cDNA, were plated at the density of 40,000 cells/well in complete F-12 medium, without hygromycin in 96-well culture plates. On day 2, the medium was aspirated, and the cells were washed twice with uptake buffer (UB). The cells were then incubated for 20 min at 22° C. with either (i) no potential competitor, (ii) 10 mM non-radioactive glycine, (iii) a concentration of a potential inhibitor. A range of concentrations of the potential inhibitor was used to generate data for calculating the concentration of inhibitor resulting in 50% of the effect (e.g. IC50, the concentration of the competitor inhibiting glycine uptake of 50%).
A solution was then immediately added containing [^3H]-glycine 60 nM (11-16 Ci/mmol) and 25 μM non-radioactive glycine. The plates were incubated with gentle shaking, and the reaction was stopped by aspiration of the mixture and washing (three times) with ice-cold UB. The cells were lysed with scintillation liquid, shaken 3 hours and the radioactivity in the cells counted using a scintillation counter.
`COCCOc1ccc([N+](=O)[O-])cc1C(=O)N1CCN(c2ccc(C(C)=O)cc2F)CC1` [Example 54, 1-(3-Fluoro-4-{4-[2-(2-methoxy-ethoxy)-5-nitro-benzoyl]-piperazin-1-yl}-phenyl)-ethanone] registered an IC50 of 0.05 µM.

In turn, `CC(C)Oc1ccc([N+](=O)[O-])cc1C(=O)N1CCN(c2ccc(C(F)(F)F)cc2)CC1` [Example 62, (2-Isopropoxy-5-nitro-phenyl)-[4-(4-trifluoromethyl-phenyl)-piperazin-1-yl]-methanone] displayed an IC50 of 0.017 µM.

Consider `O=C(c1cc([N+](=O)[O-])ccc1OCC1CC1)N1CCN(c2ccc(C(F)(F)F)cc2)CC1` [Example 63, (2-Cyclopropylmethoxy-5-nitro-phenyl)-[4-(4-trifluoromethyl-phenyl)-piperazin-1-yl]-methanone], for which the IC50 stood at 0.028 µM.

In turn, `O=C(c1cc([N+](=O)[O-])ccc1OCC1CCC1)N1CCN(c2ccc(C(F)(F)F)cc2)CC1` [Example 64, (2-Cyclobutylmethoxy-5-nitro-phenyl)-[4-(4-trifluoromethyl-phenyl)-piperazin-1-yl]-methanone] came in with an IC50 of 0.025 µM.

Molecule `CCCCOc1ccc([N+](=O)[O-])cc1C(=O)N1CCN(c2ccc(C(F)(F)F)cc2)CC1` [Example 66, (2-Butoxy-5-nitro-phenyl)-[4-(4-trifluoromethyl-phenyl)-piperazin-1-yl]-methanone] displayed an IC50 of 0.032 µM.

For the molecule `CC(C)(C)COc1ccc([N+](=O)[O-])cc1C(=O)N1CCN(c2ccc(C(F)(F)F)cc2)CC1` [Example 68, [2-(2,2-Dimethyl-propoxy)-5-nitro-phenyl]-[4-(4-trifluoromethyl-phenyl)-piperazin-1-yl]-methanone], the IC50 worked out at 0.008 µM.

In turn, `CC(C)COc1ccc([N+](=O)[O-])cc1C(=O)N1CCN(c2ccc(C(F)(F)F)cc2)CC1` [Example 70, (2-Isobutoxy-5-nitro-phenyl)-[4-(4-trifluoromethyl-phenyl)-piperazin-1-yl]-methanone] came in with an IC50 of 0.008 µM.

`O=C(c1cc([N+](=O)[O-])ccc1OC1CCCC1)N1CCN(c2ccc(C(F)(F)F)cc2)CC1` [Example 71, (2-Cyclopentyloxy-5-nitro-phenyl)-[4-(4-trifluoromethyl-phenyl)-piperazin-1-yl]-methanone] registered a 50% inhibitory concentration (IC50) of 0.008 µM.

The molecule `CCCOc1ccc([N+](=O)[O-])cc1C(=O)N1CCN(c2ccc(C(F)(F)F)cc2)CC1` [Example 72, (5-Nitro-2-propoxy-phenyl)-[4-(4-trifluoromethyl-phenyl)-piperazin-1-yl]-methanone] registered an IC50 of 0.026 µM.

For the molecule `O=C(c1cc([N+](=O)[O-])ccc1OC1CCC1)N1CCN(c2ccc(C(F)(F)F)cc2)CC1` [Example 74, (2-Cyclobutoxy-5-nitro-phenyl)-[4-(4-trifluoromethyl-phenyl)-piperazin-1-yl]-methanone], the IC50 is 0.016 µM.

`O=C(c1cc([N+](=O)[O-])ccc1OCC(F)(F)C(F)F)N1CCN(c2ccc(C(F)(F)F)cc2)CC1` [Example 80, [5-Nitro-2-(2,2,3,3-tetrafluoro-propoxy)-phenyl]-[4-(4-trifluoromethyl-phenyl)-piperazin-1-yl]-methanone]: half-maximal inhibition (IC50) required 0.029 µM.

The molecule `O=C(c1cc([N+](=O)[O-])ccc1OCC(F)(F)F)N1CCN(c2ccc(C(F)(F)F)cc2)CC1` [Example 84, [5-Nitro-2-(2,2,2-trifluoro-ethoxy)-phenyl]-[4-(4-trifluoromethyl-phenyl)-piperazin-1-yl]-methanone] returned an IC50 of 0.04 µM.

`O=C(c1cc([N+](=O)[O-])ccc1OC1CC2CCC1C2)N1CCN(c2ccc(C(F)(F)F)cc2)CC1` (stereo not drawn) [Example 88, [2-(Bicyclo[2.2.1]hept-2-yloxy)-5-nitro-phenyl]-[4-(4-trifluoromethyl-phenyl)-piperazin-1-yl]-methanone] returned an IC50 of 0.007 µM.

On to `O=C(c1cc([N+](=O)[O-])ccc1OCCCl)N1CCN(c2ccc(C(F)(F)F)cc2)CC1` [Example 92, [2-(2-Chloro-ethoxy)-5-nitro-phenyl]-[4-(4-trifluoromethyl-phenyl)-piperazin-1-yl]-methanone], for which the IC50 was 0.05 µM.

The molecule `O=C(c1cc([N+](=O)[O-])ccc1OC1CCOCC1)N1CCN(c2ccc(C(F)(F)F)cc2)CC1` [Example 95, [5-Nitro-2-(tetrahydro-pyran-4-yloxy)-phenyl]-[4-(4-trifluoromethyl-phenyl)-piperazin-1-yl]-methanone] showed a half-inhibitory concentration (IC50) of 0.035 µM.

Molecule `O=C(c1cc([N+](=O)[O-])ccc1OCC(F)(F)C(F)(F)F)N1CCN(c2ccc(C(F)(F)F)cc2)CC1` [Example 100, [5-Nitro-2-(2,2,3,3,3-pentafluoro-propoxy)-phenyl]-[4-(4-trifluoromethyl-phenyl)-piperazin-1-yl]-methanone] gave an IC50 of 0.02 µM.

`CC(C)(Oc1ccc(S(C)(=O)=O)cc1C(=O)N1CCN(c2ccc(C(F)(F)F)cn2)CC1)C(F)(F)F` [Example 105, [5-Methanesulfonyl-2-(2,2,2-trifluoro-1,1-dimethyl-ethoxy)-phenyl]-[4-(5-trifluoromethyl-pyridin-2-yl)-piperazin-1-yl]-methanone] showed an IC50 of 0.039 µM.

`CC(C)Oc1ccc(S(C)(=O)=O)cc1C(=O)N1CCN(c2ccc(S(=O)(=O)C(F)(F)F)cc2)CC1` [Example 328, (2-Isopropoxy-5-methanesulfonyl-phenyl)-[4-(4-trifluoromethanesulfonyl-phenyl)-piperazin-1-yl]-methanone]: the half-maximal inhibitory concentration (IC50) amounted to 0.032 µM.

Turning to `CS(=O)(=O)c1ccc(OC2CCCC2)c(C(=O)N2CCN(c3ccc(S(=O)(=O)C(F)(F)F)cc3)CC2)c1` [Example 329, (2-Cyclopentyloxy-5-methanesulfonyl-phenyl)-[4-(4-trifluoromethanesulfonyl-phenyl)-piperazin-1-yl]-methanone], the midpoint of inhibition, the IC50, lay at 0.016 µM.

With `CC(C)COc1ccc(S(C)(=O)=O)cc1C(=O)N1CCN(c2ccc(S(=O)(=O)C(F)(F)F)cc2)CC1` [Example 330, (2-Isobutoxy-5-methanesulfonyl-phenyl)-[4-(4-trifluoromethanesulfonyl-phenyl)-piperazin-1-yl]-methanone], the IC50 came out at 0.018 µM.

On to `CC(C)Oc1ccc(S(C)(=O)=O)cc1C(=O)N1CCN(c2ccc(C#N)c(F)c2F)CC1` [compound 109], for which the IC50 is 0.021 µM.

As for `CNS(=O)(=O)c1ccc(OC(F)(F)F)c(C(=O)N2CCN(c3ccc(C#N)c(F)c3)CC2)c1` [compound 111], the IC50 stood at 0.035 µM.

For the molecule `CS(=O)(=O)c1ccc(OCCC(F)(F)F)c(C(=O)N2CCN(c3ccc(C#N)cc3F)CC2)c1` [compound 112], the IC50 was determined as 0.024 µM.

Consider `CS(=O)(=O)c1ccc(OCCC(F)(F)F)c(C(=O)N2CCN(c3ccc(C(F)(F)F)c(F)c3)CC2)c1` [compound 116], for which the 50% inhibitory concentration (IC50) turned out to be 0.019 µM.

Turning to `CS(=O)(=O)c1ccc(OCCC(F)(F)F)c(C(=O)N2CCN(c3ccc(C(F)(F)F)cc3F)CC2)c1` [compound 117], inhibition was half-maximal at 0.044 µM (IC50).

In turn, `CC(=O)c1ccc(N2CCN(C(=O)c3cc(S(C)(=O)=O)ccc3OCCC(F)(F)F)CC2)c(F)c1` [compound 118] gave an IC50 of 0.024 µM.

On to `CC(C)COc1ccc(S(C)(=O)=O)cc1C(=O)N1CCN(c2ccc(C#N)c(F)c2F)CC1` [compound 128], for which inhibition was half-maximal at 0.02 µM (IC50).

On to `CS(=O)(=O)c1ccc(OC2CCCC2)c(C(=O)N2CCN(c3ccc(C#N)c(F)c3F)CC2)c1` [compound 131], for which the IC50 came to 0.03 µM.

For the molecule `CC(C)COc1ccc(S(C)(=O)=O)cc1C(=O)N1CCN(c2cc(F)c(C#N)cc2F)CC1` [compound 132], the IC50 is 0.038 µM.

As for `CS(=O)(=O)c1ccc(OC2CCCC2)c(C(=O)N2CCN(c3cc(F)c(C#N)cc3F)CC2)c1` [compound 135], it took 0.041 µM to reach half-maximal inhibition (IC50).

`CS(=O)(=O)c1ccc(OCC2CCC2)c(C(=O)N2CCN(c3ccc(C#N)cc3)CC2)c1` [compound 136] gave an IC50 of 0.027 µM.

`CS(=O)(=O)c1ccc(OCC2CCC2)c(C(=O)N2CCN(c3ccc(C#N)c(F)c3)CC2)c1` [compound 137]: 0.027 µM corresponded to half-maximal inhibition (IC50).

For `CS(=O)(=O)c1ccc(OCC2CCC2)c(C(=O)N2CCN(c3ccc(C#N)cc3F)CC2)c1` [compound 138], the IC50 came to 0.017 µM.

For orientation: IC50 means the concentration needed to halve the response being measured. Lower therefore signals greater potency.
